Organism: Rattus norvegicus
Test: Open TG-GATES - Regimen: Single
Type: toxicity, organism-based, Sprague-Dawley
Design: regimen Single, gender Male, age 6 weeks
Conditions: in vivo, po, 300 mg/kg, route gavage, dose level Middle; for APTT / Bas / Eos / Fbg / Hb / Ht / Lym / MCH / MCHC / MCV / Mono / Neu / PT / Plat / RBC / Ret / WBC: tissue Blood; for KIDNEY_L / KIDNEY_R / KIDNEY_TOTAL: tissue Kidney; for LIVER: tissue Liver; for ALP / ALT / AST / BUN / CRE / Ca / Cl / DBIL / GLC / IP / K / LDH / Na / PL / RALB / TBIL / TC / TG / TP / gamma-GTP: tissue Plasma

Compound: COC(=O)C1=C(C)NC(C)=C(C(=O)OC)C1c1ccccc1[N+](=O)[O-] [NIFEDIPINE]
- APTT (3 h): 16.6 s
- Bas (3 h): 0.2%
- Eos (3 h): 0.6%
- Fbg (3 h): 299.2 mg/dL
- Hb (3 h): 12.8 g/dL
- Ht (3 h): 39.1%
- Lym (3 h): 75.2%
- MCH (3 h): 21 pg
- MCHC (3 h): 32.9%
- MCV (3 h): 63.8 fL
- Mono (3 h): 3.8%
- Neu (3 h): 19.8%
- PT (3 h): 15.1 s
- Plat (3 h): 126.5 x10_4/uL
- RBC (3 h): 613 x10_4/ul
- Ret (3 h): 9.4%
- WBC (3 h): 113.9 x10_2/uL
- KIDNEY_L (3 h): 0.9 g
- KIDNEY_R (3 h): 0.9 g
- KIDNEY_TOTAL (3 h): 1.8 g
- LIVER (3 h): 8.1 g
- ALP (3 h): 1571 IU/L
- ALT (3 h): 46.2 IU/L
- AST (3 h): 74.8 IU/L
- BUN (3 h): 27.6 mg/dL
- CRE (3 h): 0.3 mg/dL
- Ca (3 h): 11.6 mg/dL
- Cl (3 h): 96.8 meq/L
- DBIL (3 h): 0.01 mg/dL
- GLC (3 h): 263.6 mg/dL
- IP (3 h): 9.5 mg/dL
- K (3 h): 4.7 meq/L
- LDH (3 h): 85 IU/L
- Na (3 h): 134.6 meq/L
- PL (3 h): 135.4 mg/dL
- RALB (3 h): 2.6 g/dL
- TBIL (3 h): 0.034 mg/dL
- TC (3 h): 84.2 mg/dL
- TG (3 h): 33.6 mg/dL
- TP (3 h): 5.3 g/dL
- gamma-GTP (3 h): 1 IU/L
- TERMINAL_BW (6 h): 205.3 g
- APTT (6 h): 16.3 s
- Bas (6 h): 0%
- Eos (6 h): 0.6%
- Fbg (6 h): 293.2 mg/dL
- Hb (6 h): 13.1 g/dL
- Ht (6 h): 40%
- Lym (6 h): 75%
- MCH (6 h): 20.7 pg
- MCHC (6 h): 32.6%
- MCV (6 h): 63.5 fL
- Mono (6 h): 3.8%
- Neu (6 h): 19.8%
- PT (6 h): 14.9 s
- Plat (6 h): 123.8 x10_4/uL
- RBC (6 h): 632 x10_4/ul
- Ret (6 h): 10%
- WBC (6 h): 101.9 x10_2/uL
- KIDNEY_L (6 h): 0.9 g
- KIDNEY_R (6 h): 0.9 g
- KIDNEY_TOTAL (6 h): 1.8 g
- LIVER (6 h): 7.9 g
- ALP (6 h): 1503.6 IU/L
- ALT (6 h): 51.2 IU/L
- AST (6 h): 78.8 IU/L
- BUN (6 h): 32.2 mg/dL
- CRE (6 h): 0.2 mg/dL
- Ca (6 h): 11.3 mg/dL
- Cl (6 h): 97.6 meq/L
- DBIL (6 h): 0.006 mg/dL
- GLC (6 h): 221.4 mg/dL
- IP (6 h): 10.7 mg/dL
- K (6 h): 5.1 meq/L
- LDH (6 h): 78.8 IU/L
- Na (6 h): 136.6 meq/L
- PL (6 h): 150.4 mg/dL
- RALB (6 h): 2.6 g/dL
- TBIL (6 h): 0.042 mg/dL
- TC (6 h): 90.6 mg/dL
- TG (6 h): 19.4 mg/dL
- TP (6 h): 5.5 g/dL
- gamma-GTP (6 h): 1.2 IU/L
- TERMINAL_BW (9 h): 206.1 g
- APTT (9 h): 17.3 s
- Bas (9 h): 0%
- Eos (9 h): 0.6%
- Fbg (9 h): 288 mg/dL
- Hb (9 h): 13.1 g/dL
- Ht (9 h): 39.7%
- Lym (9 h): 78.2%
- MCH (9 h): 21 pg
- MCHC (9 h): 33%
- MCV (9 h): 63.7 fL
- Mono (9 h): 3.6%
- Neu (9 h): 16.4%
- PT (9 h): 14.6 s
- Plat (9 h): 124.2 x10_4/uL
- RBC (9 h): 623 x10_4/ul
- Ret (9 h): 9.8%
- WBC (9 h): 94.7 x10_2/uL
- KIDNEY_L (9 h): 0.9 g
- KIDNEY_R (9 h): 0.9 g
- KIDNEY_TOTAL (9 h): 1.8 g
- LIVER (9 h): 7.3 g
- ALP (9 h): 1317.2 IU/L
- ALT (9 h): 51.2 IU/L
- AST (9 h): 76.6 IU/L
- BUN (9 h): 26.8 mg/dL
- CRE (9 h): 0.2 mg/dL
- Ca (9 h): 10.9 mg/dL
- Cl (9 h): 100.8 meq/L
- DBIL (9 h): 0.01 mg/dL
- GLC (9 h): 193.4 mg/dL
- IP (9 h): 11.1 mg/dL
- K (9 h): 5 meq/L
- LDH (9 h): 72.4 IU/L
- Na (9 h): 137.4 meq/L
- PL (9 h): 156.4 mg/dL
- RALB (9 h): 2.5 g/dL
- TBIL (9 h): 0.046 mg/dL
- TC (9 h): 91 mg/dL
- TG (9 h): 28.2 mg/dL
- TP (9 h): 5.4 g/dL
- gamma-GTP (9 h): 1 IU/L
- TERMINAL_BW (24 h): 198.5 g
- APTT (24 h): 16.6 s
- Bas (24 h): 0%
- Eos (24 h): 1%
- Fbg (24 h): 298.6 mg/dL
- Hb (24 h): 13.1 g/dL
- Ht (24 h): 40%
- Lym (24 h): 67%
- MCH (24 h): 20.4 pg
- MCHC (24 h): 32.7%
- MCV (24 h): 62.2 fL
- Mono (24 h): 3.6%
- Neu (24 h): 27%
- PT (24 h): 14.1 s
- Plat (24 h): 128.1 x10_4/uL
- RBC (24 h): 643.8 x10_4/ul
- Ret (24 h): 9%
- WBC (24 h): 95.9 x10_2/uL
- KIDNEY_L (24 h): 0.9 g
- KIDNEY_R (24 h): 0.9 g
- KIDNEY_TOTAL (24 h): 1.7 g
- LIVER (24 h): 7.8 g
- ALP (24 h): 1579.6 IU/L
- ALT (24 h): 43.8 IU/L
- AST (24 h): 68.4 IU/L
- BUN (24 h): 12 mg/dL
- CRE (24 h): 0.2 mg/dL
- Ca (24 h): 10.6 mg/dL
- Cl (24 h): 107.4 meq/L
- DBIL (24 h): 0.012 mg/dL
- GLC (24 h): 160.4 mg/dL
- IP (24 h): 8.3 mg/dL
- K (24 h): 3.9 meq/L
- LDH (24 h): 73.8 IU/L
- Na (24 h): 145 meq/L
- PL (24 h): 133.6 mg/dL
- RALB (24 h): 2.8 g/dL
- TBIL (24 h): 0.042 mg/dL
- TC (24 h): 77.8 mg/dL
- TG (24 h): 41.2 mg/dL
- TP (24 h): 5.8 g/dL
- gamma-GTP (24 h): 0.8 IU/L

Source: ChEMBL document CHEMBL3885861, “Open TG-GATES”
